{"source": "ChEMBL document CHEMBL1201862", "about": "“PubChem BioAssay data set” (2004)", "test_in_all_cases": "growth of human tumour cells (NCI), 48 h", "key": {"HT-29": {"system": "HT-29"}, "RPMI-8226": {"system": "RPMI-8226"}, "KM-20L2": {"system": "KM-20L2"}, "IGROV-1": {"system": "IGROV-1"}, "DMS-273": {"system": "DMS-273"}, "M19-MEL": {"system": "M19-MEL"}, "HCC 2998": {"system": "HCC 2998"}, "TK-10": {"system": "TK-10"}, "OVCAR-3": {"system": "OVCAR-3"}, "HCT-15": {"system": "HCT-15"}, "COLO 205": {"system": "COLO 205"}, "DLD-1": {"system": "DLD-1"}, "SN12C": {"system": "SN12C"}, "K562": {"system": "K562"}, "LOX IMVI": {"system": "LOX IMVI"}, "RXF 393": {"system": "RXF 393"}, "UO-31": {"system": "UO-31"}, "DMS-114": {"system": "DMS-114"}, "OVCAR-5": {"system": "OVCAR-5"}, "LXFL 529": {"system": "LXFL 529"}, "SK-MEL-5": {"system": "SK-MEL-5"}, "Malme-3M": {"system": "Malme-3M"}, "NCI-H226": {"system": "NCI-H226"}, "SW-620": {"system": "SW-620"}, "SF-295": {"system": "SF-295"}, "EKVX": {"system": "EKVX"}, "SK-MEL-28": {"system": "SK-MEL-28"}, "HL-60": {"system": "HL-60"}, "NCI-H23": {"system": "NCI-H23"}, "ACHN": {"system": "ACHN"}, "MOLT-4": {"system": "MOLT-4"}, "SNB-75": {"system": "SNB-75"}, "OVCAR-8": {"system": "OVCAR-8"}, "SK-OV-3": {"system": "SK-OV-3"}, "UACC-62": {"system": "UACC-62"}, "HOP-62": {"system": "HOP-62"}, "SF-268": {"system": "SF-268"}, "M14": {"system": "M14"}, "KM12": {"system": "KM12"}, "NCI-H460": {"system": "NCI-H460"}, "U-251": {"system": "U-251"}, "SR": {"system": "SR"}, "HOP-92": {"system": "HOP-92"}, "HCT-116": {"system": "HCT-116"}, "SK-MEL-2": {"system": "SK-MEL-2"}, "UACC-257": {"system": "UACC-257"}, "CCRF-CEM": {"system": "CCRF-CEM"}}, "note": "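Five concentrations, 48 hours, 96-well plates. The concentration for 50% growth inhibition is given as GI50.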 Calls of active or inactive are those of the source. Rule as the data show it: active = GI50 up to about 1.1 µM and inactive = higher.", "data": [{"smiles": "COc1c2c(cc3c(CCc4ccccc4)cc(=O)oc13)CCC(C)(C)O2", "values": [{"measurement": "GI50", "setting": "HT-29", "result": "> 100 µM (inactive)"}, {"measurement": "GI50", "setting": "RPMI-8226", "result": "> 100 µM (inactive)"}, {"measurement": "GI50", "setting": "KM-20L2", "result": "> 100 µM (inactive)"}, {"measurement": "GI50", "setting": "IGROV-1", "result": "> 100 µM (inactive)"}, {"measurement": "GI50", "setting": "DMS-273", "result": "> 100 µM (inactive)"}, {"measurement": "GI50", "setting": "M19-MEL", "result": "> 100 µM (inactive)"}, {"measurement": "GI50", "setting": "HCC 2998", "result": "> 100 µM (inactive)"}, {"measurement": "GI50", "setting": "TK-10", "result": "> 100 µM (inactive)"}, {"measurement": "GI50", "setting": "OVCAR-3", "result": "> 100 µM (inactive)"}, {"measurement": "GI50", "setting": "HCT-15", "result": "> 100", "unit": "µM"}, {"measurement": "GI50", "setting": "COLO 205", "result": "> 100 µM (inactive)"}, {"measurement": "GI50", "setting": "DLD-1", "result": "> 100 µM (inactive)"}, {"measurement": "GI50", "setting": "SN12C", "result": "> 100 µM (inactive)"}, {"measurement": "GI50", "setting": "K562", "result": "> 100 µM (inactive)"}, {"measurement": "GI50", "setting": "LOX IMVI", "result": "> 100 µM (inactive)"}, {"measurement": "GI50", "setting": "RXF 393", "result": "> 100 µM (inactive)"}, {"measurement": "GI50", "setting": "UO-31", "result": "> 100 µM (inactive)"}, {"measurement": "GI50", "setting": "DMS-114", "result": "> 100 µM (inactive)"}, {"measurement": "GI50", "setting": "OVCAR-5", "result": "> 100 µM (inactive)"}, {"measurement": "GI50", "setting": "LXFL 529", "result": "> 100 µM (inactive)"}, {"measurement": "GI50", "setting": "SK-MEL-5", "result": "> 100 µM (inactive)"}, {"measurement": "GI50", "setting": "Malme-3M", "result": "> 100 µM (inactive)"}, {"measurement": "GI50", "setting": "NCI-H226", "result": "> 100 µM (inactive)"}, {"measurement": "GI50", "setting": "SW-620", "result": "> 100 µM (inactive)"}, {"measurement": "GI50", "setting": "SF-295", "result": "> 100 µM (inactive)"}, {"measurement": "GI50", "setting": "EKVX", "result": "> 100 µM (inactive)"}, {"measurement": "GI50", "setting": "SK-MEL-28", "result": "> 100 µM (inactive)"}, {"measurement": "GI50", "setting": "HL-60", "result": "> 100 µM (inactive)"}, {"measurement": "GI50", "setting": "NCI-H23", "result": "> 100 µM (inactive)"}, {"measurement": "GI50", "setting": "ACHN", "result": "> 100 µM (inactive)"}, {"measurement": "GI50", "setting": "MOLT-4", "result": "> 100 µM (inactive)"}, {"measurement": "GI50", "setting": "SNB-75", "result": "> 100 µM (inactive)"}, {"measurement": "GI50", "setting": "OVCAR-8", "result": "> 100 µM (inactive)"}, {"measurement": "GI50", "setting": "SK-OV-3", "result": "> 100 µM (inactive)"}, {"measurement": "GI50", "setting": "UACC-62", "result": "> 100 µM (inactive)"}, {"measurement": "GI50", "setting": "HOP-62", "result": "> 100 µM (inactive)"}, {"measurement": "GI50", "setting": "SF-268", "result": "> 100 µM (inactive)"}, {"measurement": "GI50", "setting": "M14", "result": "> 100 µM (inactive)"}, {"measurement": "GI50", "setting": "KM12", "result": "> 100 µM (inactive)"}, {"measurement": "GI50", "setting": "NCI-H460", "result": "> 100 µM (inactive)"}, {"measurement": "GI50", "setting": "U-251", "result": "> 100 µM (inactive)"}, {"measurement": "GI50", "setting": "SR", "result": "> 100 µM (inactive)"}, {"measurement": "GI50", "setting": "HOP-92", "result": "2.34 µM (inactive)"}, {"measurement": "GI50", "setting": "HCT-116", "result": "> 100 µM (inactive)"}, {"measurement": "GI50", "setting": "SK-MEL-2", "result": "> 100 µM (inactive)"}, {"measurement": "GI50", "setting": "UACC-257", "result": "> 100 µM (inactive)"}, {"measurement": "GI50", "setting": "CCRF-CEM", "result": "> 100 µM (inactive)"}]}]}
